ChEMBL document CHEMBL1201862, “PubChem BioAssay data set” (2004)
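How tested: cells in 96-well plates exposed to compound for 48 hours at five concentrations. GI50 is the concentration that inhibits growth by half.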 Activity calls are given as the source filed them. Cut-off read from the data, not from the text of the source: active = GI50 up to about 1.1 µM and inactive = higher.

Legend:
Experiment in all cases: DTP human tumour cell line panel, 48 h
[1] = test system: DU-145
[2] = test system: EKVX
[3] = test system: Hs-578T
[4] = test system: K562
[5] = test system: MCF7
[6] = test system: MDA-N
[7] = test system: NCI-H23
[8] = test system: OVCAR-3
[9] = test system: OVCAR-4
[10] = test system: OVCAR-8
[11] = test system: RPMI-8226
[12] = test system: SK-MEL-2
[13] = test system: SK-MEL-5
[14] = test system: SNB-75
[15] = test system: SW-620
[16] = test system: TK-10
[17] = test system: U-251
[18] = test system: LOX IMVI
[19] = test system: T47D

Compound	GI50 [1]	GI50 [2]	GI50 [3]	GI50 [4]	GI50 [5]	GI50 [6]	GI50 [7]	GI50 [8]	GI50 [9]	GI50 [10]	GI50 [11]	GI50 [12]	GI50 [13]	GI50 [14]	GI50 [15]	GI50 [16]	GI50 [17]	GI50 [18]	GI50 [19]
C=C1CCc2ccccc2C1=O	> 100 µM (inactive)	> 100 µM (inactive)	> 100 µM (inactive)	37.9 µM (inactive)	56 µM (inactive)	43.1 µM (inactive)	> 100 µM (inactive)	> 100 µM (inactive)	> 100 µM (inactive)	> 100 µM (inactive)	> 100 µM (inactive)	> 100 µM (inactive)	> 100 µM (inactive)	> 100 µM (inactive)	> 100 µM (inactive)	> 100 µM (inactive)	> 100 µM (inactive)		
N=C(CC/C(N)=N/O)NO	> 100 µM (inactive)	> 100 µM (inactive)	> 100 µM (inactive)	> 100 µM (inactive)		> 100 µM (inactive)	> 100 µM (inactive)	> 100 µM (inactive)	> 100 µM (inactive)			> 100 µM (inactive)	> 100 µM (inactive)	> 100 µM (inactive)	> 100 µM (inactive)	> 100 µM (inactive)	> 100 µM (inactive)	> 100 µM (inactive)	> 100 µM (inactive)
CC(=O)Oc1c(C)cc(-c2cc(C)c(OC(C)=O)c(C)c2)cc1C	41.7 µM (inactive)	37.3 µM (inactive)	15.7 µM (inactive)	> 100 µM (inactive)	> 100 µM (inactive)	4.98 µM (inactive)	15.4 µM (inactive)	90.2 µM (inactive)	82.6 µM (inactive)	37.1 µM (inactive)	> 100 µM (inactive)	41.6 µM (inactive)	25.4 µM (inactive)	16.2 µM (inactive)	10.2 µM (inactive)	30.5 µM (inactive)	15 µM (inactive)	17.2 µM (inactive)	
COCCN(C(C)=O)C1CCC2(SCCS2)c2[nH]c3ccccc3c21 (centres undefined)	> 100 µM (inactive)	> 100 µM (inactive)	> 100 µM (inactive)	> 100 µM (inactive)	> 100 µM (inactive)	> 100 µM (inactive)	> 100 µM (inactive)	> 100 µM (inactive)		> 100 µM (inactive)	35.5 µM (inactive)		> 100 µM (inactive)	> 100 µM (inactive)	> 100 µM (inactive)	> 100 µM (inactive)	> 100 µM (inactive)	> 100 µM (inactive)	
COc1ccc(OC)c(C2CCc3c(cnc4nc(N)nc(N)c34)C2)c1 (centres undefined)	13.9 µM (inactive)	1.58 µM (inactive)	15.7 µM (inactive)	0.573 µM (active)	10.1 µM (inactive)	2.07 µM (inactive)		15.5 µM (inactive)	10.2 µM (inactive)	5.36 µM (inactive)		15.2 µM (inactive)	11 µM (inactive)		10.1 µM (inactive)	10.9 µM (inactive)	4.79 µM (inactive)	1.32 µM (inactive)	20.7 µM (inactive)
OC(Cc1ccc2ccccc2n1)(C(F)(F)Cl)C(F)(F)Cl	> 10 µM (inactive)	> 10 µM (inactive)	> 10 µM (inactive)	> 10 µM (inactive)	> 10 µM (inactive)	> 10 µM (inactive)	> 10 µM (inactive)	> 10 µM (inactive)	> 10 µM (inactive)	> 10 µM (inactive)			> 10 µM (inactive)	> 10 µM (inactive)	> 10 µM (inactive)	> 10 µM (inactive)	> 10 µM (inactive)	> 10 µM (inactive)	> 10 µM (inactive)
COc1ccc(C2OCCN2C)cc1 (centres undefined)		> 100 µM (inactive)	> 100 µM (inactive)	> 100 µM (inactive)	> 100 µM (inactive)	> 100 µM (inactive)	> 100 µM (inactive)	> 100 µM (inactive)	> 100 µM (inactive)	> 100 µM (inactive)	> 100 µM (inactive)	> 100 µM (inactive)	> 100 µM (inactive)	36.9 µM (inactive)	> 100 µM (inactive)	> 100 µM (inactive)	> 100 µM (inactive)	58.2 µM (inactive)	> 100 µM (inactive)
CCOc1cc(/C=N\N(C)C)cc(/C=N\N(C)C)c1O	> 100 µM (inactive)	71.6 µM (inactive)	29.7 µM (inactive)	> 100 µM (inactive)		32.8 µM (inactive)	> 100 µM (inactive)	31.7 µM (inactive)	> 100 µM (inactive)	21.6 µM (inactive)	31.6 µM (inactive)	28.2 µM (inactive)	22.1 µM (inactive)	28.8 µM (inactive)	53.3 µM (inactive)	69.2 µM (inactive)	33.7 µM (inactive)	30.5 µM (inactive)	11.7 µM (inactive)
CN(C)CCNc1ccc(NCCN(C)C)c2c1C(=O)c1ncsc1C2=O	13.2 µM (inactive)	12.3 µM (inactive)	17.7 µM (inactive)	13.6 µM (inactive)	7.33 µM (inactive)		15.2 µM (inactive)	4.65 µM (inactive)	10.2 µM (inactive)	12.5 µM (inactive)	10.6 µM (inactive)	20.2 µM (inactive)	15.8 µM (inactive)	15.8 µM (inactive)	9.82 µM (inactive)	24.8 µM (inactive)	14 µM (inactive)	8.53 µM (inactive)	> 100 µM (inactive)
C[C@]12CC[C@@H]3c4ccc(OC(=O)c5ccccc5)cc4CC[C@H]3[C@@H]1CC[C@@H]2Oc1c2ccccc2nc2ccccc12	9.23 µM (inactive)	1.52 µM (inactive)	5.5 µM (inactive)	6.38 µM (inactive)	17 µM (inactive)	3.53 µM (inactive)	12.4 µM (inactive)	7.66 µM (inactive)	15.8 µM (inactive)	13 µM (inactive)	7.69 µM (inactive)	16.2 µM (inactive)	8.61 µM (inactive)	10 µM (inactive)	16.9 µM (inactive)	17.2 µM (inactive)	8.41 µM (inactive)	7.85 µM (inactive)	
Clc1cc2ccccc2c2ccccc12	43 µM (inactive)	41.5 µM (inactive)	65.6 µM (inactive)	42.1 µM (inactive)	31.7 µM (inactive)		81.5 µM (inactive)	52.2 µM (inactive)	42.1 µM (inactive)	> 100 µM (inactive)	31.9 µM (inactive)	27.5 µM (inactive)	63.2 µM (inactive)	> 100 µM (inactive)	90.6 µM (inactive)	> 100 µM (inactive)	44 µM (inactive)	53.7 µM (inactive)	32 µM (inactive)
C[n+]1c(-c2ccccc2)cc2/c(=C\c3ccccc3)c3ccccc3n21	2.54 µM (inactive)	1.93 µM (inactive)	0.116 µM (active)	7.03 µM (inactive)	1.34 µM (inactive)	0.948 µM (active)	2.68 µM (inactive)	1.34 µM (inactive)	1.62 µM (inactive)	0.361 µM (active)		0.832 µM (active)	0.667 µM (active)	0.422 µM (active)	1.06 µM (active)	2.72 µM (inactive)	0.233 µM (active)	1.25 µM (inactive)	
O=C(O)c1cccc(S(=O)(=O)NN2C(=O)CSC2c2c(O)ccc3ccccc23)c1 (centres undefined)	44.7 µM (inactive)	45.8 µM (inactive)		31.3 µM (inactive)		37.8 µM (inactive)	21.7 µM (inactive)	20.6 µM (inactive)	28.9 µM (inactive)	< 0.01 µM (active)		33.5 µM (inactive)	21 µM (inactive)	30.6 µM (inactive)	21.1 µM (inactive)	> 100 µM (inactive)	34.3 µM (inactive)	27.4 µM (inactive)	22.5 µM (inactive)
COc1ccccc1-c1c(C#N)c(N)[nH]c(=S)c1C#N	> 100 µM (inactive)	43 µM (inactive)	30.9 µM (inactive)	14.4 µM (inactive)	44.5 µM (inactive)	25.9 µM (inactive)	> 100 µM (inactive)	56.1 µM (inactive)	57.8 µM (inactive)	61.4 µM (inactive)	20.5 µM (inactive)	37 µM (inactive)	32.1 µM (inactive)		27.4 µM (inactive)	> 100 µM (inactive)	48.1 µM (inactive)	65.2 µM (inactive)	
Cc1ccc(S(=O)(=O)NC(=O)NCc2ccc(S(N)(=O)=O)cc2)cc1	> 100 µM (inactive)	> 100 µM (inactive)	> 100 µM (inactive)	> 100 µM (inactive)	> 100 µM (inactive)		> 100 µM (inactive)	> 100 µM (inactive)	> 100 µM (inactive)		> 100 µM (inactive)	> 100 µM (inactive)	> 100 µM (inactive)	> 100 µM (inactive)	> 100 µM (inactive)	> 100 µM (inactive)	> 100 µM (inactive)	> 100 µM (inactive)	> 100 µM (inactive)
COc1ccc(NC(S)=Nc2cccc(C)n2)cc1	> 100 µM (inactive)	> 100 µM (inactive)	58.2 µM (inactive)	75.3 µM (inactive)	> 100 µM (inactive)		84.5 µM (inactive)		> 100 µM (inactive)	96.8 µM (inactive)	> 100 µM (inactive)	> 100 µM (inactive)	> 100 µM (inactive)	69.5 µM (inactive)	> 100 µM (inactive)	> 100 µM (inactive)	33.5 µM (inactive)	> 100 µM (inactive)	> 100 µM (inactive)
